Measurements as given in US10076505B2, “Inhalation formulations of Treprostinil” (priority 2003, dated 2018).

Assays:
[1] = system: human alveolar macrophages; conditions: cited from earlier work
digital ischemic lesions [2] = assay: Study of Treprostinil for digital ischemic lesions in patients with systemic sclerosis (Example VIII); type: in vivo, human
Procedure: This study involved 12 subjects with diffuse or limited scleroderma with at least one DIL that had been present for 2 months or more (Table 1). Subjects who completed the study were treated for 12 weeks with Treprostinil and followed for another 8 weeks after drug discontinuation (FIG. 1). […] Assessments were performed at baseline, weeks 2, 6, 12, 16, and 20. At each visit, the largest (target) lesion and other prominent DIL were measured by recording the largest diameter of the lesions. DIL were counted and photographed. Patient and physician global assessment of ulcers as well as patient assessment of disability from DIL were measured using visual analogue scales (VAS) at each visit.

[3] = system: human pulmonary arterial smooth muscle cells; conditions: cited from earlier work
digital ischemic lesions [4] = assay: Subcutaneous Treprostinil in scleroderma patients with digital ischemic lesions (Example VII); type: in vivo, human; conditions: continuous subcutaneous infusion, 12 weeks, increasing dose
Procedure: Scleroderma patients having at least one lesion (i.e., small sore or area of tissue gangrene) present on a hand or finger are dosed with increasing amounts of Treprostinil over 12 weeks. The medication is delivered by a small pump that is connected to a catheter placed under the skin. In this manner, increasing dosages of Treprostinil are administered to patients by chronic continuous subcutaneous infusion. Specifically, a 1.0 mg/mL formulation of Treprostinil sodium) (REMODULIN®) is administered subcutaneously using a standard micro-infusion, positive-pressure infusion pump designed for subcutaneous drug delivery (Mini-Med). Patients receive an initial dose of 2.5 ng/kg/min of study drug. […] After that, the dose is raised by 2.50 ng/kg/min each week until not tolerated or once a target dose is reached. Dosing is increased weekly unless not tolerated by the patient. […] One example of a target dose is 15 ng/kg/min. The minimum dose is usually not less than 0.625 ng/kg/min.

sheep = assay: Intravenous and aerosolized UT-15 dose response during U44069 induced pulmonary hypertension (Example V); type: in vivo; conditions: for left atrial pressure: all three delivery rates
Text: Sheep were used as the animal model of choice for these experiments for a number of reasons. First is the docile nature of sheep. They will stand quietly in metabolic cages without having to utilize tranquilizing drugs, which have the potential to complicate experimental results. Second, sheep are large enough to allow direct measurement of CO, PPA, PLA, PCV, and PSYS. Sheep are also large enough to allow direct aerosolization of substances into the lung via trachoestomy thereby preventing swallowing of drugs and thus eliminating a possible secondary route of administration of UT-15. Third, sheep can tolerate a great amount of instrumentation with little or no discomfort. Fourth, sheep have been utilized for several years as an animal model of pulmonary arterial hypertension and thus, there is a great amount of historical data with which to compare the results. […] The reasons for using U44069 are that it is a very potent pulmonary vasoconstrictor, its characteristics are very similar to endogenously formed thromboxane A2, and it can be titrated to induce the desired degree of pulmonary vasoconstriction. U44069 was mixed with sterile normal saline immediately prior to being used and was protected from light by wrapping the solution with aluminum foil. The concentration of U44069 was adjusted such that a minimal flow rate of 0.8 ml per min was being infused into the sheep. This was done because more concentrated U44069 would have to be infused at very low rates and often causes “pulses” of U44069 due to the infusion characteristics of roller pumps. The U44069 pulses cause vasoconstriction “spikes” and thus would create induce a non-steady-state. Six yearling sheep (3 males, 3 females; 21-37 kg) were fasted 18-24 hours and initially anesthetized with a short acting barbiturate (thiopental) to allow intubation of the sheep. Halothane gas anesthesia (1.5-2.5%) was then used for the surgical procedures. Via a left thoracotomy, a Transonic blood flow probe was placed around the main pulmonary artery, silastic catheters placed in the main pulmonary artery and left atrium. After approximately 7 days the sheep were reanesthetized and the left carotid artery cannulated, a Cordis Introducer Sheath inserted in the left jugular vein, and a tracheotomy made. The sheep were allowed to recover for another 3-5 days prior to experimentation. These sheep were used to allow measurement of pulmonary arterial pressure (PPA), left atrial pressure (PLA), central venous pressure (PCV), systemic arterial pressure (PSYS), heart rate (HR), and cardiac output (CO) after baseline measurements were made for a minimum of 30 minutes. Two separate experiments were conducted to determine the dose response effects of intravenously infused UT-15 and aerosolized UT-15 during U44069 induced pulmonary hypertension. After a 30 minute baseline was established, U44069 was infused intravenously at a rate of 1 ng per kg per min. For the intravenous administration of UT-15 and after allowing the sheep to achieve a steady-state for 30-60 minutes, a dose-response to intravenous UT-15 was similar to that set forth in Example IV. For the aerosolized administration of UT-15 and after allowing the sheep to achieve a steady-state for 30-60 minutes, a dose-response to intravenous UT-15 was similar to that set forth in Example IV. In each experimental protocol, UT-15 was administered to three sheep for 30 minutes and to the other three sheep for 60 minutes.

[5] = during U44069 infusion, aerosol
[6] = during U44069 infusion, aerosolized
[7] = during U44069 infusion, intravascular
[8] = during U44069 infusion, intravenous

CCCCC[C@H](O)CC[C@@H]1[C@H]2Cc3cccc(OCC(=O)O)c3C[C@H]2C[C@H]1O [UT-15, 9-deoxy-2′,9-alpha-methano-3-oxa-4,5,6-trinor-3,7-(1′,3′-interphenylene)-13,14-dihydro-prostaglandin F1]
inflammatory cytokine (tumor necrosis factor-α, interleukin-1β, interleukin-6, GM-CSF) secretion and gene expression [1]: inhibits | physician global assessment of DIL severity, average improvement (digital ischemic lesions [2]; after 12 weeks of therapy): 60% | patients who developed new ulcers during the 8-week follow-up period after drug discontinuation (digital ischemic lesions [2]; after drug discontinuation): two of three | new ulcers while receiving continuous therapy (digital ischemic lesions [2]; any patients): No new ulcers | subjective measures of severity of DIL (patient and physician global assessment, DIL disability VAS) (digital ischemic lesions [2]; by week 6, all five subjects): marked improvements | DIL disability VAS score, average improvement (digital ischemic lesions [2]; by week 12): 77% | patient global assessment, average improvement (digital ischemic lesions [2]; by week 12): 89% | average decrease in the size of baseline DIL (digital ischemic lesions [2]; continuous sc infusion, 12 weeks): 65% | target lesions (digital ischemic lesions [2]; four subjects who completed 12 weeks of active therapy, sc infusion up to 15 ng/kg/min): improved in all patients | subjects unable to complete the study due to intolerable injection site pain (digital ischemic lesions [2]; of 12 subjects): five | subjects with complete resolution of their target lesions (digital ischemic lesions [2]; of the four subjects who completed 12 weeks): three | proliferation of human pulmonary arterial smooth muscle cells [3]: inhibits proliferation | lesions present before treatment (digital ischemic lesions [4]): reduction in the number, size and severity | new lesions associated with scleroderma (digital ischemic lesions [4]): fewer new lesions | cardiac output (sheep; [5]): no effect | time at which UT-15 began to attenuate the increase in PVR (sheep; [5]): 4 to 5 min | left atrial pressure (sheep; [5]): increased above baseline | heart rate (sheep; [6]): no effect | off response (PVR) (sheep; [6]): 43 min | systemic arterial pressure (sheep; [6]): no statistical differences | PPA (sheep; during U44069 infusion, aerosolized, 500 and 1000 ng per kg per min): back to normal values | PVR relative to baseline PVR (sheep; during U44069 infusion, aerosolized, any of the three delivery rates): no significant difference | PPA relative to U44069 value (sheep; [7]): decrease significantly | pulmonary vascular driving pressure (PPA-PLA) (sheep; [7]): unchanged | off response (PVR) (sheep; [8]): 12 min | systemic arterial pressure (sheep; [8]): no statistical differences | time at which UT-15 began to attenuate the increase in PVR (sheep; [8]): 4 to 5 min | central venous pressure (sheep; during U44069 infusion, intravenous, 500 and 1000 ng per kg per min): different from the U44069 values | heart rate (sheep; during U44069 infusion, intravenous, 500 and 1000 ng per kg per min different from U44069 values): increase above the values during U44069 conditions | cardiac output (sheep; during U44069 infusion, intravenous, significant at 500 and 100 ng per kg per min): dose-response increase | left atrial pressure (sheep; during U44069 infusion, intravenously infused): significant decrease from the U44069 value | U44069-induced increase in PVR (sheep; intravenously infused, 500 and 1000 ng per kg per min): significantly attenuated
